According to PubChem BioAssay (NCI):
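Tested at 5 concentrations; 48 h exposure; 96-well plates; endpoints linearly interpolated, else capped at highest concentration. Here, GI50 denotes the concentration required for 50% inhibition of growth. TGI is the concentration that stops growth completely.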

Tests used:
Assay in all cases: inhibition of tumour cell growth, NCI panel, 48 h
[1] = system: DU-145 prostate
[2] = system: HOP-62 NSCLC
[3] = system: KM12 colon
[4] = system: NCI-H226 lung
[5] = system: NCI-H23 lung
[6] = system: PC-3 prostate
[7] = system: SF-539 CNS
[8] = system: SK-MEL-5 melanoma
[9] = system: SK-OV-3 ovarian
[10] = system: SR leukemia

Compound | GI50 [1] [µM] | TGI [1] [µM] | TGI [2] [µM] | TGI [3] [µM] | TGI [4] [µM] | TGI [5] [µM] | GI50 [6] [µM] | TGI [6] [µM] | TGI [7] [µM] | TGI [8] [µM] | TGI [9] [µM] | TGI [10] [µM] | GI50 [2] [µM] | GI50 [3] [µM] | GI50 [4] [µM] | GI50 [5] [µM] | GI50 [7] [µM] | GI50 [8] [µM] | GI50 [9] [µM] | GI50 [10] [µM]
COC(=O)C(=O)CC(=O)CCn1ncc(Cl)c(Cl)c1=O | 18.3 | 35 | 42.1 | > 74.5 | 39.3 | 26.9 | 14.5 | 37.2 | 35.2 | 30.8 | 40.8 | 5.76 |  |  |  |  |  |  |  | 
COc1cc(/C=C\[N+](=O)[O-])ccc1O | 2.41 | 5.93 | 13.8 | 17.3 | 16.6 | 11.4 | 8.63 | 21.6 | 5.18 | 3.24 | 25.9 | 38.5 | 3.21 | 4.93 | 4.34 | 3.34 | 2.03 | 1.77 | 12.7 | 0.987
C=C1C(O)C2CCC(C)(C)C(=O)C2=C(CC(C)C)C12CC2 (configuration not stated) | 84.9 | > 100 | > 100 | > 100 | > 100 | > 100 | 33.2 | > 100 | > 100 | > 100 | > 100 | > 100 | 76.6 | 47.1 | 43.5 | 66.7 | 70.7 | 24.8 | > 100 | 34
O=C(CCN1CCN(c2cnc3ccccc3n2)CC1)c1csc2ccccc12 | 29.5 | > 100 | > 100 | > 100 | > 100 | > 100 | 28.1 | > 100 | 77.9 | > 100 | > 100 | > 100 | 58.6 | 33.5 | 35.7 | > 100 | 29.3 | 60.3 | > 100 | 36.1
O=C(NNc1nc2c(F)cccc2n2cccc12)c1cnccn1 | 0.657 | 24.9 | 20 | 27.1 | 7 | > 69.8 | 0.393 | 39.5 | 14.5 | 4.56 | 27.8 | > 37.7 | 0.365 | 0.458 | 0.522 | 0.905 | 0.487 | 0.864 | 0.527 | 0.392
CC(CO)(CO)N=Cc1cc(I)cc(I)c1O |  | 29.8 | 25 | 28.2 | 34.7 | 58.7 |  | 32.1 | 31.3 | 28.5 | 41.9 | 54.1 |  |  |  |  |  |  |  | 
N/C(CC(=O)Nc1cc(C(F)(F)F)ccc1Cl)=N\O |  | > 100 | > 100 | > 100 | > 100 | > 100 |  | > 100 | > 100 | > 100 | > 100 | > 100 |  |  |  |  |  |  |  | 
CN=C(N)N/N=C(\c1ccccc1)c1ccc(Br)cc1 | 0.366 | 10.5 | 13.3 | 4.4 | 11.8 | 11.8 | 0.402 | 11 | 0.537 | 1.29 | 12.3 | 2.42 | 1.15 | 0.334 | 1.09 | 0.562 | 0.218 | 0.335 | 0.462 | 0.31
NC(N)=N/N=C(/c1ccccc1)c1ccc(F)cc1 | 0.33 | 4.15 | 13.1 | 7.5 | 14.5 | 8.94 | 0.382 | 18.8 | 0.902 | 4.66 | 12.8 | 6.11 | 0.85 | 0.32 | 1.06 | 0.403 | 0.271 | 0.316 | 0.371 | 0.286
CNC(=O)c1ccccc1CC1(O)c2ccccc2Oc2ccccc21 | 22 | 56.5 | 74.5 | 44.6 | 34.8 | > 100 | 13.1 | 99.3 | 40.8 | 13 | 87.3 | 86.4 | 17.2 | 8.15 | 11.3 | 26 | 17.3 | 3.2 | 24 | 6.61
N#Cc1c(NC(=O)c2cccc(C(F)(F)F)c2)sc2c1CCC(=O)C2 | 3.3 | > 100 | > 26.4 | 1.95 | 5.02 | 2.88 | 0.292 | 1.41 | 1.23 | 2.65 | 6.19 | > 31.8 | 1.76 | 0.477 | 1.55 | 0.379 | 0.329 | 1.3 | 2.3 | 0.347
COc1cc(-n2cc(-c3ccc(Cl)c(Cl)c3)nc2SCc2ccccc2)cc(OC)c1OC | > 100 | > 100 | > 100 | > 100 | > 100 | > 100 | 38.9 | > 100 | > 100 | > 100 | > 100 | > 100 | > 100 | > 100 | > 100 | > 100 | > 100 | > 100 | > 100 | > 100
COc1cc(C(=O)NC2c3ccccc3-c3ccccc32)c(N)cc1OCc1ccccc1 | 2.87 | > 100 | 38.4 | > 100 | 44.3 | > 100 | 27.5 | > 66.1 | 28.3 | > 100 | 43.8 | > 100 | 10.6 | > 100 | 11.4 | 30.6 | 11.8 | 27.5 | 16.9 | 98.6
O=C(Nc1nc2ccccc2s1)OCC(F)(F)F | > 100 | > 100 | > 100 | > 100 | > 100 | > 100 | > 100 | > 100 | > 100 | > 100 | > 100 | > 100 | > 100 | > 100 | > 100 | > 100 | > 100 | > 100 | > 100 | > 100
O=C1/C(=C/c2ccc(F)cc2)CCOc2ccc([N+](=O)[O-])cc21 | 5.68 | 18.1 | 8.33 | 4.4 | 39.6 | 4.51 | 0.306 | 1.64 | 5.99 | 3.6 | 32.6 | 6.35 | 2.89 | 1.83 | 20.1 | 1.95 | 2.52 | 1.84 | 17 | 2.07
